Read-outs that look alike come from different tables or passages of the source.
Experiments:
[1] = test system: TRE3G-GFP reporter gene; assay: TRE3G-GFP reporter gene activation in HCT116, dCas9 + MS2-FKBP*x2 (F36V) system, flow cytometry; assay type: cell-based, human; design: fold change, GFP: reference not given here; conditions: for fold change, GFP: FIG. 5C, NT gRNA, 48 hrs
[2] = test system: CXCR4; assay: CXCR4 mRNA activation in HCT116 stably expressing dCas9 and MS2-FKBPx2 (WT-FKBP), qRT-PCR; assay type: cell-based, human; conditions: FIG. 6, WT FKBP system, 48 hrs
[3] = test system: CXCR4; assay: CXCR4 mRNA activation in HCT116 stably expressing dCas9 and MS2-FKBP*x2, qRT-PCR; assay type: cell-based, human
Summary of the method: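 HCT116 cells stably expressing dCas9 and MS2-FKBP*x2 with CXCR4 gRNA were treated with CEMs (screen at 5 nM; 1–50 nM range). CXCR4 mRNA measured by one-step qRT-PCR after 48 h, or at 12–96 h in time course. Reversibility tested by washout after 24 h, optionally with 20 μM AP1867.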

[4] = test system: TRE3G-GFP reporter gene; conditions: WT FKBP (MS2-FKBPx2), 48 hrs
Protocol: HCT116 cells were transfected with TRE3G-GFP, dCas9, MS2-FKPB*x2, and TRE3G gRNA or NT gRNA. After 48 hrs of 10 nM SLF*-CEMa treatment, flow cytometry was performed and mean fluorescent value was collected. […] TRE3G-GFP, dCas9, MS2-FKBP*2, TRE3G gRNA or NT gRNA were transfected into HCT116 cells. The media was changed to media with 5 nM CEM207 together with 0 nM, 50 nM, 500 nM or 5000 nM of AP1867, respectively. After 48 hrs chemical exposure, flow cytometry was performed and the mean fluorescent value was measured in each group of cells. […] FIGS. 5D and 5E are dose curves of CEMa molecules activating the GFP reporter gene in HCT116 cells using WT FKBP and dCas9 as DNA binding module. HCT116 cells were transfected with dCas9, MS2-FKBPx2, TRE3G-GFP constructs, along with TRE3G gRNA or NT gRNA. Cells were treated with different concentrations of CEMa molecules for 48 hrs before flow cytometry was conducted. […] Error bars represent the standard deviation.
To better understand the activity of SLF*-CEMa in the WT FKBP-based GFP reporter assay, a similar dose-response assay was conducted in HCT116 cells transfected with dCas9 and MS2-FKBPx2 (FIGS. 1D and 1E).
Flow cytometry. All flow cytometry experiments were performed with Attune Nxt as previously described. […] Significance was determined by Student's t-test.

Q: With COc1ccc2c(c1)C(c1ccc(Cl)cc1)=N[C@@H](CC(=O)NCc1cn(CCOCCOCCOCCNC(=O)CCSCCC[C@@H]3/C=C(\C)C[C@H](C)C[C@H](OC)[C@H]4O[C@@](O)(C(=O)C(=O)N5CCCC[C@H]5C(=O)O[C@H](/C(C)=C/[C@@H]5CC[C@@H](O)[C@H](OC)C5)[C@H](C)[C@@H](O)CC3=O)[C@H](C)C[C@@H]4OC)nn1)c1nnc(C)n1-2 [CEM87, reference compound] as the molecule, how does the “concentration at which significant GFP activation was first achieved” value ([1]; FIG. 1E, FKBP* system, TRE3G gRNA, 48 hours) read?
A: Its value is 50 nM.

Q: And the “fold change, GFP (Treated vs Non-Treated)” value ([1]; FIG. 1E, TRE3G gRNA, 0.25 nM, 48 hours)?
A: Its value is 1.1 fold.

Q: And the “fold change, GFP (Treated vs Non-Treated)” value ([1]; FIG. 1E, TRE3G gRNA, 0.5 nM, 48 hours)?
A: Its value is 1.1 fold.

Q: What about the “fold change, GFP (Treated vs Non-Treated)” value ([1]; FIG. 1E, TRE3G gRNA, 0.75 nM, 48 hours) of the same molecule?
A: The value was 1.1 fold.

Q: What about the “fold change, GFP (Treated vs Non-Treated)” value ([1]; FIG. 1E, TRE3G gRNA, 1 nM, 48 hours) of the same molecule?
A: The value was 1.1 fold.

Q: What about the “fold change, GFP (Treated vs Non-Treated)” value ([1]; FIG. 1E, TRE3G gRNA, 2.5 nM, 48 hours) of the same molecule?
A: Its value is 1.2 fold.

Q: What about the “fold change, GFP (Treated vs Non-Treated)” value ([1]; FIG. 1E, TRE3G gRNA, 5 nM, 48 hours) of the same molecule?
A: The value was 1.1 fold.

Q: What about the “fold change, GFP (Treated vs Non-Treated)” value ([1]; FIG. 1E, TRE3G gRNA, 7.5 nM, 48 hours) of the same molecule?
A: Its value is 1.1 fold.

Q: And the “fold change, GFP (Treated vs Non-Treated)” value ([1]; FIG. 1E, TRE3G gRNA, 10 nM, 48 hours)?
A: The value was 1.2 fold.

Q: And the “fold change, GFP (Treated vs Non-Treated)” value ([1]; FIG. 1E, TRE3G gRNA, 25 nM, 48 hours)?
A: Its value is 1.6 fold.

Q: What about the “fold change, GFP (Treated vs Non-Treated)” value ([1]; FIG. 1E, TRE3G gRNA, 50 nM, 48 hours) of the same molecule?
A: Its value is 5.2 fold.

Q: And the “fold change, GFP (Treated vs Non-Treated)” value ([1]; FIG. 1E, TRE3G gRNA, 75 nM, 48 hours)?
A: The value was 7.8 fold.

Q: What about the “fold change, GFP (Treated vs Non-Treated)” value ([1]; FIG. 1E, TRE3G gRNA, 100 nM, 48 hours) of the same molecule?
A: Its value is 9.7 fold.

Q: And the “fold change, GFP” value ([1]; 0.25 nM)?
A: The value was 1.1 fold.

Q: And the “fold change, GFP” value ([1]; 0.5 nM)?
A: Its value is 1.1 fold.

Q: What about the “fold change, GFP” value ([1]; 0.75 nM) of the same molecule?
A: Its value is 1.0 fold.

Q: And the “fold change, GFP” value ([1]; 1 nM)?
A: Its value is 1.0 fold.

Q: And the “fold change, GFP” value ([1]; 2.5 nM)?
A: Its value is 1.1 fold.

Q: And the “fold change, GFP” value ([1]; 5 nM)?
A: Its value is 1.0 fold.

Q: What about the “fold change, GFP” value ([1]; 7.5 nM) of the same molecule?
A: The value was 1.0 fold.

Q: What about the “fold change, GFP” value ([1]; 10 nM) of the same molecule?
A: Its value is 1.0 fold.

Q: What about the “fold change, GFP” value ([1]; 25 nM) of the same molecule?
A: The value was 1.0 fold.

Q: What about the “fold change, GFP” value ([1]; 50 nM) of the same molecule?
A: Its value is 1.0 fold.

Q: What about the “fold change, GFP” value ([1]; 75 nM) of the same molecule?
A: The value was 1.0 fold.

Q: And the “fold change, GFP” value ([1]; 100 nM)?
A: Its value is 1.0 fold.

Q: What about the “fold change, CXCR4 mRNA (CXCR4 gRNA vs NT gRNA)” value ([2]; 25 nM) of the same molecule?
A: The value was 21.5 fold.

Q: And the “fold change, CXCR4 mRNA (CXCR4 gRNA vs NT gRNA)” value ([2]; 50 nM)?
A: The value was 16.5 fold.

Q: What about the “fold change, CXCR4 mRNA (CXCR4 gRNA vs NT gRNA)” value ([2]; 200 nM) of the same molecule?
A: The value was 19.0 fold.

Q: And the “fold change, CXCR4 mRNA (Treated vs Non-Treated)” value ([3]; FIG. 2C, 5 nM, 48 hrs)?
A: Its value is 1.5 fold.

Q: And the “fold change, CXCR4 mRNA (CEM Treated vs Non-Treated)” value ([3]; FIG. 2D, CXCR4 gRNA, 1 nM, 48 hrs)?
A: Its value is 1.16 fold.

Q: And the “fold change, CXCR4 mRNA (CEM Treated vs Non-Treated)” value ([3]; FIG. 2D, CXCR4 gRNA, 5 nM, 48 hrs)?
A: Its value is 1.03 fold.

Q: What about the “fold change, CXCR4 mRNA (CEM Treated vs Non-Treated)” value ([3]; FIG. 2D, CXCR4 gRNA, 25 nM, 48 hrs) of the same molecule?
A: The value was 1.19 fold.

Q: What about the “fold change, CXCR4 mRNA (CEM Treated vs Non-Treated)” value ([3]; FIG. 2D, CXCR4 gRNA, 50 nM, 48 hrs) of the same molecule?
A: The value was 1.53 fold.

Q: What about the “fold change, CXCR4 mRNA (CEM Treated vs Non-Treated)” value ([3]; FIG. 2D, NT gRNA, 1 nM, 48 hrs) of the same molecule?
A: The value was 0.85 fold.

Q: What about the “fold change, CXCR4 mRNA (CEM Treated vs Non-Treated)” value ([3]; FIG. 2D, NT gRNA, 5 nM, 48 hrs) of the same molecule?
A: The value was 0.81 fold.

Q: What about the “fold change, CXCR4 mRNA (CEM Treated vs Non-Treated)” value ([3]; FIG. 2D, NT gRNA, 25 nM, 48 hrs) of the same molecule?
A: The value was 0.91 fold.

Q: And the “fold change, CXCR4 mRNA (CEM Treated vs Non-Treated)” value ([3]; FIG. 2D, NT gRNA, 50 nM, 48 hrs)?
A: The value was 1.18 fold.

Q: And the “activation of CXCR4 mRNA expression” value ([3]; FIG. 2D, all concentrations tested (1-50 nM), 48 hours)?
A: The value was “no significant activation”.

Q: What about the “fold change, GFP (Treated vs Non-Treated)” value ([4]; FIG. 5D, 10 nM) of the same molecule?
A: Its value is 22.5 fold.

Q: What about the “fold change, GFP (Treated vs Non-Treated)” value ([4]; FIG. 5D, 25 nM) of the same molecule?
A: The value was 23.1 fold.

Q: What about the “fold change, GFP (Treated vs Non-Treated)” value ([4]; FIG. 5D, 50 nM) of the same molecule?
A: Its value is 22.1 fold.

Q: And the “fold change, GFP (Treated vs Non-Treated)” value ([4]; FIG. 5D, 100 nM)?
A: Its value is 22.0 fold.

Q: What about the “fold change, GFP (Treated vs Non-Treated)” value ([4]; FIG. 5D, 200 nM) of the same molecule?
A: Its value is 18.7 fold.

Q: What about the “fold change, GFP (Treated vs Non-Treated)” value ([4]; FIG. 5D, 400 nM) of the same molecule?
A: Its value is 18.3 fold.

Q: And the “fold change, GFP (Treated vs Non-Treated)” value ([4]; FIG. 5E, 10 nM)?
A: Its value is 1.0 fold.

Q: What about the “fold change, GFP (Treated vs Non-Treated)” value ([4]; FIG. 5E, 25 nM) of the same molecule?
A: Its value is 1.1 fold.

Q: And the “fold change, GFP (Treated vs Non-Treated)” value ([4]; FIG. 5E, 50 nM)?
A: The value was 1.1 fold.

Q: What about the “fold change, GFP (Treated vs Non-Treated)” value ([4]; FIG. 5E, 100 nM) of the same molecule?
A: The value was 1.2 fold.

Q: What about the “fold change, GFP (Treated vs Non-Treated)” value ([4]; FIG. 5E, 200 nM) of the same molecule?
A: The value was 1.1 fold.

Q: What about the “fold change, GFP (Treated vs Non-Treated)” value ([4]; FIG. 5E, 400 nM) of the same molecule?
A: Its value is 1.2 fold.

From US20250177566A1, “USE OF CHEMICAL EPIGENETIC MODIFIERS TO MODULATE GENE EXPRESSION” (The University of North Carolina at Chapel Hill, priority 2022, published 2025)
